Results from US20250270202A1, “SUBSTITUTED 4-AMINOISOINDOLINE COMPOUND, PREPARATION METHOD THEREFOR, PHARMACEUTICAL COMPOSITION THEREOF, AND USE THEREOF” (SHANGHAI INSTITUTE OF MATERIA MEDICA, CHINESE ACADEMY OF …, priority 2022, published 2025).
Like-named read-outs stand apart in the source and are kept apart here.

Key:
Type in all cases: cell-based
MM.1S cells = experiment: Effect of the compound on MM.1S cell proliferation (MTS, 7 days); settings: Homo sapiens, MM1.S
Description: MM.1S cells were cultured in 1640 medium supplemented with 10% fetal bovine serum, then collected and diluted to the desired cell concentration after 7 days of treatment. A total of 180 μL of cell suspension was added to each well in a 96-well cell plate, ensuring 20,000 cells per well. For the control group, 20 μL of 0.2% DMSO was added to each well. Compounds were diluted in a 5-step gradient from a 10 mM stock solution, and 20 μL of each dilution was added to the compound-containing wells (with a final DMSO concentration of 0.2%). The cells were incubated in a 37° C., 5% CO2 incubator for 7 days. Afterward, 20 μL of the MTS reagent (Promega, G5430) was added to each well, followed by incubation for 3-4 hours in a 37° C., 5% CO2 incubator. Absorbance at 490 nm was measured using a microplate reader, with 690 nm absorbance as the background. The final raw data was calculated as OD490-OD690. The compound inhibition rate was calculated using the formula: […]
The IC50 for the compound's proliferative inhibition was fitted using GraphPad Prism 5.0. The experiment was repeated three times, and the average and standard deviation were calculated using three parallel experiments per trial.

Mino cells = experiment: Inhibition of cell proliferation of Mino cells (MTS, 3 days); settings: Homo sapiens, MINO
Description: Mino cells were cultured with RPMI-1640 medium supplemented with 15% fetal bovine serum, and collected. The cell concentration was diluted according to a 3-day treatment period, and 90 μL of the cell suspension was added to each well of a 96-well plate, resulting in 8000 cells per well. For control wells, 10 μL of DMSO at a final concentration of 0.2% was added. The compounds were diluted in a 5-fold gradient from a 10 mM stock solution, and 10 μL of each compound solution was added to the experimental wells (with a final DMSO concentration of 0.2%). The cells were incubated in a 37° C., 5% CO2 incubator for 3 days. After preparing the reaction mixture using the MTS reagent kit (Promega, G5430), 20 μL was added to each well, and the cells were incubated for 3-4 hours at 37° C., 5% CO2.
The absorbance at 490 nm was read using a microplate reader, with the absorbance at 690 nm used as the background. The final raw data was calculated as OD490-OD690. The inhibition rate of the compounds was calculated using the formula: Inhibition rate=(OD DMSO−OD compound)/(OD DMSO−OD blank)×100%. The IC50 values for cell proliferation inhibition of the compounds were fitted using GraphPad Prism 5.0. The experiment was repeated three times, with the average and standard deviation calculated from three parallel experiments each time.

MV-4-11 cells = experiment: Inhibition of MV-4-11 cell proliferation (MTS, 7 days); settings: Homo sapiens
Description: MV-4-11 cells were cultured in IMDM with 10% fetal bovine serum, collected, and diluted to the appropriate cell concentration for a 7-day treatment period. A 96-well plate was used, and 180 μL of cell suspension was added to each well, resulting in a cell count of 2,000 per well. For the control wells, 20 μL of DMSO at a final concentration of 0.2% was added. The compounds were diluted from a 10 mM stock solution in a five-fold gradient, and 20 μL was added to the compound wells (with a final DMSO concentration of 0.2%). The cells were incubated in a 37° C., 5% CO2 incubator for 7 days. After preparing the reaction solution using the MTS reagent kit (Promega, G5430), 20 μL was added to each well, and the cells were incubated in the incubator for 3-4 hours. The absorbance at 490 nm was measured using a microplate reader, with the absorbance at 690 nm as the background value. The final data was calculated as OD490-OD690. The inhibition rate of the compounds was calculated using the formula: […]
The IC50 values for proliferation inhibition were calculated using GraphPad Prism 5.0. The experiments were repeated three times, with three parallel experiments for each, and the mean and standard deviation were calculated.
The cell activity test results are shown in Table 3: A indicates IC50<1 μM, B indicates 1 µM≤IC50≤20 μM, and C indicates IC50>20 μM.

[1] = 168 h, 7 days, MTS, Table 1, read-out: MM.1S Cells Inhibition Activity IC50
[2] = 72 h, 3 days, MTS, Table 2, read-out: Mino Cells Inhibition Activity IC50
[3] = MV4-11, 168 h, 7 days, MTS, Table 3, read-out: MV-4-11 Cells Inhibition Activity IC50
[4] = Table 4, read-out: Inhibitory Activity of Compounds on Cell Proliferation MM.1S IC50
[5] = Table 4, read-out: Inhibitory Activity of Compounds on Cell Proliferation Mino IC50
[6] = MV4-11, Table 4, values in nM, read-out: Inhibitory Activity of Compounds on Cell Proliferation MV-4-11 IC50

Row | SMILES | IC50 (MM.1S cells; [1]) [nM] | IC50 (Mino cells; [2]) [nM] | IC50 (MV-4-11 cells; [3]) [nM] | IC50 (MM.1S cells; [4]) [nM] | IC50 (Mino cells; [5]) [nM] | IC50 (MV-4-11 cells; [6]) [nM]
1 | CC(C)(C)C(=O)OCN1C(=O)CCC(N2C(=O)c3cccc(NCc4cnc(-c5ccc(C(F)(F)F)cc5)s4)c3C2=O)C1=O (stereo not drawn) [Example 39] | 15 to 30 | 60 to 120 | < 1000 | – | – | –
2 | O=C1CCC(N2C(=O)c3cccc(NCc4cnc(C5CCN(Cc6ccc(F)cc6)CC5)o4)c3C2=O)C(=O)N1 (stereo not drawn) [Example 12] | 30 to 150 | > 120 | < 1000 | – | – | –
3 | O=C1CCC(N2C(=O)c3cccc(NCc4cnc(-c5ccc(OCCO)cc5)o4)c3C2=O)C(=O)N1 (stereo not drawn) [Example 50] | < 15 | < 60 | < 1000 | – | – | –
4 | O=C1CCC(N2C(=O)c3cccc(NCc4cnc(-c5ccc(Cl)cn5)s4)c3C2=O)C(=O)N1 (stereo not drawn) [Example 43] | < 15 | > 120 | < 1000 | – | – | –
5 | O=C1CCC(N2C(=O)c3cccc(NCc4cnc(-c5ccc(C(F)(F)F)cc5)o4)c3C2=O)C(=O)N1 (stereo not drawn) [Example 57] | < 15 | > 120 | < 1000 | – | – | –
6 | O=C1CCC(N2C(=O)c3cccc(NCc4cnc([C@H]5CC[C@H](Cc6ccc(F)cc6)CC5)o4)c3C2=O)C(=O)N1 (stereo partly drawn) [Example 106, 2-(2,6-Dioxopiperidine-3-yl)-4-(((2-((1R,4R)-4-(4-Fluorobenzyl)cyclohexyl)oxazol-5-yl)methyl)amino)isoindoline-1,3-dione] | 30 to 150 | > 120 | < 1000 | – | – | –
7 | O=C1CCC(N2C(=O)c3cccc(NCc4cnc(-c5ccc(OC6CC6)cc5)s4)c3C2=O)C(=O)N1 (stereo not drawn) [Example 103, 4-(((2-(4-Cyclopropoxyphenyl)thiazol-5-yl)methyl)amino)-2-(2,6-Dioxopiperidine-3-yl)isoindoline-1,3-dione] | < 15 | > 120 | 1000 to 20000 | – | – | –
8 | O=C1CCC(N2C(=O)c3cccc(NCc4cnc([C@H]5CC[C@@H](Cc6ccc(F)cc6)CC5)o4)c3C2=O)C(=O)N1 (stereo partly drawn) [Example 105, 2-(2,6-Dioxopiperidine-3-yl)-4-(((2-((1S,4S)-4-(4-Fluorobenzyl)cyclohexyl)oxazol-5-yl)methyl)amino)isoindoline-1,3-dione] | > 150 | > 120 | 1000 to 20000 | – | – | –
9 | O=C1CCC(N2C(=O)c3cccc(NCc4ncc(-c5ccc(F)cc5)o4)c3C2=O)C(=O)N1 (stereo not drawn) [Example 72, 2-(2,6-Dioxopiperidin-3-yl)-4-(((5-(4-Fluorophenyl)oxazol-2-yl)methyl)amino)isoindolin-1,3-dione] | < 15 | > 120 | < 1000 | – | – | –
10 | CC1(C(=O)N2CCC(c3ncc(CNc4cccc5c4C(=O)N(C4CCC(=O)NC4=O)C5=O)o3)CC2)CCCCC1 (stereo not drawn) [Example 10] | < 15 | 60 to 120 | 1000 to 20000 | – | – | –
11 | Cc1ccccc1-c1ncc(CNc2cccc3c2C(=O)N(C2CCC(=O)NC2=O)C3=O)o1 (stereo not drawn) [Example 21] | < 15 | > 120 | 1000 to 20000 | – | – | –
12 | O=C1CCC(N2C(=O)c3cccc(NCc4cnc(-c5ccc(OC(F)(F)F)cc5)o4)c3C2=O)C(=O)N1 (stereo not drawn) [Example 15] | < 15 | 60 to 120 | < 1000 | 6.4 | 60.5 | 750
13 | O=C1CCC(N2C(=O)c3cccc(NCc4cnc(-c5ccc(OC(F)(F)F)cc5)s4)c3C2=O)C(=O)N1 (stereo not drawn) [Example 35] | < 15 | < 60 | < 1000 | – | – | –
14 | O=C1CCC(N2C(=O)c3cccc(NCc4ncc(-c5ccc(F)cc5)s4)c3C2=O)C(=O)N1 (stereo not drawn) [Example 34] | 30 to 150 | > 120 | < 1000 | – | – | –
15 | O=C1CCC(N2C(=O)c3cccc(NCc4ncc(-c5ccccc5F)o4)c3C2=O)C(=O)N1 (stereo not drawn) [Example 95, 2-(2,6-Dioxopiperidine-3-yl)-4-(((5-(2-Fluorophenyl)oxazol-2-yl)methyl)amino)isoindoline-1,3-dione] | 30 to 150 | > 120 | > 20000 | – | – | –
16 | Cc1ccc(-c2cnc(CNc3cccc4c3C(=O)N(C3CCC(=O)NC3=O)C4=O)o2)cc1 (stereo not drawn) [Example 24] | 15 to 30 | > 120 | < 1000 | – | – | –
17 | C[C@@H]1CN(Cc2ncc(CNc3cccc4c3C(=O)N(C3CCC(=O)NC3=O)C4=O)o2)C[C@H](C)O1 (stereo partly drawn) [Example 79, 4-(((2-(((2R,6S)-2,6-Dimethylmorpholino)methyl)oxazol-5-yl)methyl)amino)-2-(2,6-Dioxopiperidin-3-yl)isoindoline-1,3-dione] | > 150 | > 120 | < 1000 | – | – | –
18 | Cc1ccc(-c2ncc(CNc3cccc4c3C(=O)N(C3CCC(=O)NC3=O)C4=O)o2)cc1 (stereo not drawn) [Example 19] | < 15 | < 60 | < 1000 | – | – | –
19 | O=C1CCC(N2Cc3c(CCc4cnc(-c5ccc(OC(F)(F)F)cc5)o4)cccc3C2=O)C(=O)N1 (stereo not drawn) [Prior Art Disclosed Compound-2, reference compound] | – | – | – | 73 | 800 | > 20000
20 | O=C1CCC(N2C(=O)c3cccc(NCc4cnc(-c5ccccc5C(F)(F)F)o4)c3C2=O)C(=O)N1 (stereo not drawn) [Example 59] | 30 to 150 | > 120 | 1000 to 20000 | – | – | –
21 | O=C1CCC(N2C(=O)c3cccc(NCc4cnc(C5CCN(C(=O)c6ccc(F)cc6)CC5)o4)c3C2=O)C(=O)N1 (stereo not drawn) [Example 5] | 15 to 30 | > 120 | 1000 to 20000 | – | – | –
22 | CC(C)(C)C(=O)N1CCC(c2ncc(CNc3cccc4c3C(=O)N(C3CCC(=O)NC3=O)C4=O)o2)CC1 (stereo not drawn) [Example 9] | < 15 | > 120 | < 1000 | 8.8 | 141 | 782
23 | O=C1CCC(N2C(=O)c3cccc(NCc4cnc(-c5cccc(C(F)(F)F)c5)o4)c3C2=O)C(=O)N1 (stereo not drawn) [Example 58] | 15 to 30 | > 120 | < 1000 | – | – | –
24 | O=C1CCC(N2C(=O)c3cccc(NCc4cnc(-c5ccccc5F)o4)c3C2=O)C(=O)N1 (stereo not drawn) [Example 71, 2-(2,6-Dioxopiperidin-3-yl)-4-(((2-(2-Fluorophenyl)oxazol-5-yl)methyl)amino)isoindolin-1,3-dione] | < 15 | < 60 | < 1000 | – | – | –
